The text below walks through data of ChEMBL document CHEMBL1165854, “Computational screening for membrane-directed inhibitors of mast cell activation” (Eur J Med Chem, 2010).

The test system of data set [1] is RBL-2H3. Briefly: Inhibition of rat RBL2H3 […] assessed as reduction of beta hexasaminidase release. It counts as functional, cell-based.
Data set [2] in a line: Toxicity in rat RBL2H3 cells. Format: cell-based, RBL-2H3. To be noted: read-out: MTD.
Data set [3] concerns RBL-2H3. The data set can be described thus: Inhibition of rat RBL2H3 […] assessed as reduction of beta hexasaminidase release at 25 uM. It counts as functional.
For data set [4], the system named is RBL-2H3. The data set can be described thus: Inhibition of rat RBL2H3 […] assessed as reduction of beta hexasaminidase release at 10 uM. It counts as functional.

Broadly, the IC50 is the midpoint of a concentration-inhibition curve. As usually defined, the inhibition is the drop in the measured response relative to a control, in per cent. As for `CCCCCCCCCCCCCCCCOC(=O)C[n+]1csc(CCO)c1C`, the IC50 in the data set on RBL-2H3 [1] came to 5.5 µM. Moreover, the MNTC in data set [2] was 50 µM. For the same compound, the inhibition at 25 µM with RBL-2H3 [3] was found to be 93%.

For `CCCCCCCCCCCCCCCCNc1c2c(nc3c(C)cc(C)cc13)CC(C)(C)CC2=O`, in the data set on RBL-2H3 [3], the inhibition at 25 µM stood at 7%.

In the case of `CCCCCCCCCCCCCCCCCC(=O)Nc1c(C)c(CC)nc2ccccc12`, the inhibition at 25 µM with RBL-2H3 [3] was 10%.

For the compound `CCCCCCCCCCCCCCCCOP(=O)([O-])OC1CC2CCC(C1)[N+]2(C)C` (stereo not drawn), the inhibition at 10 µM in the data set with RBL-2H3 [4] was found to be 82%. Moreover, the IC50 in the data set with RBL-2H3 [1] came out at 5.7 µM. The MNTC in data set [2] amounted to 25 µM.

As to `CCCCCCCCCCCCCCCCOP(=O)([O-])OCC[N+](C)(CC)CC`, in the data set on RBL-2H3 [4], the inhibition at 10 µM turned out to be 88%. Besides, the concentration for half-maximal inhibition (IC50) in the data set with RBL-2H3 [1] was determined as 4.4 µM. The MNTC in data set [2] is 50 µM.

`CCCCCCCCCCCCCCCCCCOC[C@H](COP(=O)([O-])OCC[N+](C)(C)C)OC` [(R)-EDELFOSINE]: the IC50 in the data set on RBL-2H3 [1] came to 7.1 µM. The MNTC in data set [2] came out at 25 µM. For the same compound, in the data set with RBL-2H3 [3], the inhibition at 25 µM was 79%.

For the compound `CCCCCCCCCCCCCCCCSCC(COC)COP(=O)([O-])OCC[N+](C)(C)C` (stereo not drawn) [ILMOFOSINE], the inhibition at 10 µM in the data set on RBL-2H3 [4] was 84%. Further, the IC50 in the data set on RBL-2H3 [1] was found to be 6.4 µM. In addition, the MNTC in data set [2] amounted to 50 µM.

Consider `CCCCCCCCCCCCCCCCOP(=O)([O-])OCC[N+](C)(C)C` [MILTEFOSINE], for which, in the data set on RBL-2H3 [4], the inhibition at 10 µM was found to be 87%. Also, the IC50 in the data set with RBL-2H3 [1] was 4.6 µM. Moreover, the MNTC in data set [2] was 25 µM.

In the case of `CCCCCCCCCCCCCCCCCCOP(=O)([O-])OC1CC[N+](C)(C)CC1` [PERIFOSINE], in the data set on RBL-2H3 [4], the inhibition at 10 µM is 88%. Further, the IC50 in the data set with RBL-2H3 [1] came out at 5 µM. Besides, in data set [2], the MNTC came to 25 µM.
